This is an account of results in ChEMBL document CHEMBL4382234, “Fluoroquinolone-isatin hybrids and their biological activities” (Eur J Med Chem, 2019).

Molecules are shown by their SMILES. In brackets after ≈: the same amount, converted by molar mass. Where only a bound is given, the exact number is not on record here.

One assay concerns SW480. The experiment in a line: Anticancer activity against human SW480 cells after 48 hrs by MTT assay. In kind it is functional, cell-based. The settings on record: SW480, 48 h.
In a further assay the test system is HeLa. The experiment in a line: Anticancer activity against human HeLa cells after 48 hrs by MTT assay. In kind it is functional, cell-based.
The next assay concerns A549. Description: Anticancer activity against human A549 cells after 48 hrs by MTT assay. The format is functional, cell-based. To be noted: A549, 48 h.
A further assay deals with HepG2. The experiment in a line: Anticancer activity against human HepG2 cells after 48 hrs by MTT assay. The format is functional, cell-based. To be noted: HepG2, 48 h.
Assay [1] relates to Mycobacterium tuberculosis. Description: Antitubercular activity against Mycobacterium tuberculosis H37Rv by microplate alamar blue assay. In kind it is functional.
Assay [2] deals with Mycobacterium tuberculosis. Description: Antimycobacterial activity against Mycobacterium tuberculosis H37Rv after 3 to 7 days by rapid direct susceptibility test. The format is functional.
The test system of assay [3] is Mycobacterium tuberculosis. Description: Potency index, ratio of gatifloxacin MIC to test compound MIC for Mycobacterium tuberculosis H37Rv. In kind it is functional.
Assay [4] relates to Mycobacterium tuberculosis. The experiment in a line: Potency index, ratio of rifampicin MIC to test compound MIC for Mycobacterium tuberculosis H37Rv. The format is functional.
Assay [5] relates to Mycobacterium tuberculosis. The experiment in a line: Antitubercular activity against Mycobacterium tuberculosis infected in IFNgamma-deficient C57BL/6 mouse assessed bacterial load in lung at 25 mg/kg administered once daily for 8 days measured 28 days post infection. In kind it is functional.
For assay [6], the system named is Mycobacterium tuberculosis. The experiment in a line: Antitubercular activity against Mycobacterium tuberculosis infected in IFNgamma-deficient C57BL/6 mouse assessed bacterial load in spleen at 25 mg/kg administered once daily for 8 days measured 28 days post infection. In kind it is functional.
A further assay deals with Salmonella typhi. The experiment in a line: Antibacterial activity against Salmonella typhi by agar dilution method. To be noted: Salmonella enterica. The format is functional, Salmonella enterica subsp. enterica serovar Typhi.
The test system of assay [7] is Escherichia coli. Description: Antibacterial activity against Escherichia coli by agar dilution method. The format is functional.
The test system of another assay is Vibrio cholerae. Description: Antibacterial activity against Vibrio cholerae by agar dilution method. In kind it is functional.
The subject of another assay is Staphylococcus aureus. Description: Antibacterial activity against Staphylococcus aureus by agar dilution method. In kind it is functional.
Assay [8] relates to Staphylococcus epidermidis. Description: Antibacterial activity against Staphylococcus epidermidis by agar dilution method. In kind it is functional.
The next assay has as its system Klebsiella pneumoniae. The experiment in a line: Antibacterial activity against Klebsiella pneumoniae by agar dilution method. In kind it is functional.
In a further assay the test system is Pseudomonas aeruginosa. The experiment in a line: Antibacterial activity against Pseudomonas aeruginosa by agar dilution method. The format is functional.
For the next assay, the system named is Shigella flexneri. Description: Antibacterial activity against Shigella flexneri by agar dilution method. In kind it is functional.
In another assay the test system is Citrobacter freundii. The experiment in a line: Antibacterial activity against Citrobacter freundii by agar dilution method. The format is functional.
Assay [9] has as its system Escherichia coli. Description: Antibacterial activity against Escherichia coli NCTC 10418 infected in po dosed CF mouse measured after 1 week. The format is functional. The settings on record: NCTC 10418, po, 168 h.
Assay [10] has as its system Escherichia coli. The experiment in a line: Potency index, ratio of norfloxacin ED50 to test compound ED50 for antibacterial activity against Escherichia coli NCTC 10418 infected in po dosed CF mouse. The format is functional.
Assay [11] has as its system Human immunodeficiency virus 1. Description: Antiviral activity against HIV1 3B infected in human MT4 cells after 5 days by spectrophotometric method. In kind it is functional, organism-based. To be noted: Human immunodeficiency virus 1, 3B, MT4, 120 h.

In the case of `CC1CN(c2c(F)c(N)c3c(=O)c(C(=O)O)cn(C4CC4)c3c2F)CC(C)N1CN1C(=O)/C(=N\c2ccc(S(=O)(=O)Nc3ncccn3)cc2)c2ccccc21` (stereo not given), the IC50 with SW480, in the assay on HeLa, in the assay with A549 and with HepG2 was 18.3 to 50 µg/mL (≈ 23.4 to 63.8 µM) throughout.

For the compound `NNC(=O)c1ccncc1` [ISONIAZID], the MIC in [1] was 0.05 µg/mL (≈ 0.365 µM); in assay [2], over 128 µg/mL.

Turning to `CO/N=C1/C(=O)N(CCCN2CCN(c3c(F)cc4c(=O)c(C(=O)O)cn(C5CC5)c4c3OC)CC2C)c2ccc(F)cc21` (stereo not given), the lowest concentration to inhibit growth in assay [2] (MIC) was 0.25 µg/mL (≈ 0.41 µM). The Ratio in [3] and in assay [4] was 2 each time.

`COc1cc(Cc2cnc(/N=C3\C(=O)N(CN4CCN(c5cc6c(cc5F)c(=O)c(C(=O)O)cn6C5CC5)CC4)c4ccc(F)cc43)nc2N)cc(OC)c1OC`: the MIC in [1] turned out to be 0.78 µg/mL (≈ 0.999 µM). In addition, the Activity came to 5.26 log10CFU in assay [5] and 4.08 log10CFU in [6].

Regarding `CCn1cc(C(=O)O)c(=O)c2cc(F)c(N3CCN(CN4C(=O)C(=O)c5cc(C)ccc54)C(C)C3)c(F)c21` (stereo not given), the MIC (with Salmonella typhi; with Escherichia coli [7]; against Vibrio cholerae; with Staphylococcus aureus; in [8]; in the assay with Klebsiella pneumoniae) was 0.25 to 2.5 µg/mL (≈ 0.477 to 4.77 µM) throughout. Moreover, the MIC with Pseudomonas aeruginosa, with Shigella flexneri and in the assay with Citrobacter freundii was 0.25 to 2.5 µg/mL (≈ 0.477 to 4.77 µM) each time.

`CCn1cc(C(=O)O)c(=O)c2cc(F)c(N3CCN(CN4C(=O)/C(=N\c5ncc(Cc6cc(OC)c(OC)c(OC)c6)c(N)n5)c5cc(Br)ccc54)CC3)cc21` registered an ED50 with Escherichia coli [9] of 1.62 mg/kg. The Ratio in the assay with Escherichia coli [10] was 3.7.

As for `CC1CN(c2c(F)c(N)c3c(=O)c(C(=O)O)cn(C4CC4)c3c2F)CC(C)N1CN1C(=O)C(=O)c2ccccc21` (stereo not given), the half-inhibitory concentration (IC50) in the assay on SW480, in the assay with HeLa, in the assay on A549 and in the assay with HepG2 was 18.3 to 50 µg/mL (≈ 33.2 to 90.7 µM) in each case.

Turning to `CCn1cc(C(=O)O)c(=O)c2cc(F)c(N3CCNC(C)C3)c(F)c21` (stereo not given) [LOMEFLOXACIN], the MIC (against Salmonella typhi; in the assay with Escherichia coli [7]; with Vibrio cholerae; with Staphylococcus aureus; in assay [8]; against Klebsiella pneumoniae) was 0.1 to 2.5 µg/mL (≈ 0.285 to 7.12 µM) throughout. For the same compound, the MIC against Pseudomonas aeruginosa, with Shigella flexneri and against Citrobacter freundii was 0.1 to 2.5 µg/mL (≈ 0.285 to 7.12 µM) throughout.

Regarding `CCn1cc(C(=O)O)c(=O)c2cc(F)c(N3CCN(CN4C(=O)/C(=N\NC(N)=S)c5cc(Br)ccc54)CC3)cc21`, the EC50 in assay [11] amounted to 13.9 µg/mL (≈ 22 µM).

For `CCn1cc(C(=O)O)c(=O)c2cc(F)c(N3CCN(CN4C(=O)/C(=N\c5ncc(Cc6cc(OC)c(OC)c(OC)c6)c(N)n5)c5cc(F)ccc54)C(C)C3)c(F)c21` (stereo not given), in [1], the MIC was 0.78 to 3.13 µg/mL (≈ 0.974 to 3.91 µM).

With `CCn1cc(C(=O)O)c(=O)c2cc(F)c(N3CCN(CN4C(=O)/C(=N\c5ncc(Cc6cc(OC)c(OC)c(OC)c6)c(N)n5)c5cc(C)ccc54)C(C)C3)c(F)c21` (stereo not given), the MIC in assay [1] was 0.78 to 3.13 µg/mL (≈ 0.979 to 3.93 µM).

For `Cc1ccc2c(c1)C(=O)C(=O)N2CN1CCN(c2cc3c(cc2F)c(=O)c(C(=O)O)cn3C2CC2)CC1`, the MIC (in the assay with Salmonella typhi; with Escherichia coli [7]; against Vibrio cholerae; in the assay with Staphylococcus aureus; in assay [8]; with Klebsiella pneumoniae) was 0.1 to 0.5 µg/mL (≈ 0.198 to 0.991 µM) throughout. Also, the MIC with Pseudomonas aeruginosa, against Shigella flexneri and against Citrobacter freundii was 0.1 to 0.5 µg/mL (≈ 0.198 to 0.991 µM) each time.

In the case of `O=C(O)c1cn(C2CC2)c2cc(N3CCNCC3)c(F)cc2c1=O` [CIPROFLOXACIN], the MIC (with Salmonella typhi; against Escherichia coli [7]; against Vibrio cholerae; against Staphylococcus aureus; in [8]; in the assay with Klebsiella pneumoniae) was 0.1 to 2.5 µg/mL (≈ 0.302 to 7.54 µM) in each case. Besides, the MIC with Pseudomonas aeruginosa is 0.1 to 2.5 µg/mL (≈ 0.302 to 7.54 µM); with Shigella flexneri, 0.1 to 2.5 µg/mL (≈ 0.302 to 7.54 µM); in the assay on Citrobacter freundii it was 0.1 to 2.5 µg/mL (≈ 0.302 to 7.54 µM); in assay [1] it was 2 µg/mL (≈ 6.04 µM). In addition, the results for the Activity in [5] and in [6] were 6.82 log10CFU and 4.64 log10CFU, respectively.
